Measurements published in US6355799B1, “Substituted benzene compounds, process for their preparation, and herbicidal and defoliant compositions containing them” (ISK Americas Incorporated, priority 1997, dated 2002).

What was measured:
Assay type in all cases: in vivo
[1] = test system: redroot pigweed (Amaranthus retroflexus, AMARE); assay: Pre-emerge test, greenhouse herbicide activity screening; details: pre-emerge, phytotoxicity rating 0-100 at 14 days after application
Procedure, shortened: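 Compounds in acetone were track-sprayed at 15-1000 g ai/ha (187 l/ha) on sandy loam pots: pre-emerge one day after seeding, post-emerge at 2-3 leaf stage with 0.25% v/v non-ionic surfactant. Phytotoxicity was rated 14 days later on a 0 (no damage) to 100 (complete death) scale.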

[2] = test system: barnyardgrass (Echinochloa crus-galli, ECHCG); assay: as above; details: pre-emerge, phytotoxicity rating 0-100 at 14 days after application
Procedure, shortened: (§1)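 Rating: 0–100 visual injury, 14 DAA. Application: acetone, 187 l/ha, 15–1000 g ai/ha, flat-fan track sprayer with nozzle 40–45 cm above soil or canopy. Post-emerge runs used 0.25% v/v surfactant on 2–3 leaf plants.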

[3] = test system: green foxtail (Setaria viridis, SETVI); assay: as above; details: pre-emerge, phytotoxicity rating 0-100 at 14 days after application
Procedure, shortened: as §1

[4] = test system: ivyleaf morningglory (Ipomoea hederacea, IPOHE); assay: as above; details: pre-emerge, phytotoxicity rating 0-100 at 14 days after application
Procedure, shortened: as §1

[5] = test system: johnsongrass (Sorghum halepense, SORHA); assay: as above; details: pre-emerge, phytotoxicity rating 0-100 at 14 days after application
Procedure, shortened: as §1

[6] = test system: lambsquarters (Chenopodium album, CHEAL); assay: as above; details: pre-emerge, phytotoxicity rating 0-100 at 14 days after application
Procedure, shortened: as §1

[7] = test system: large crabgrass (Digitaria sanguinalis, DIGSA); assay: as above; details: pre-emerge, phytotoxicity rating 0-100 at 14 days after application
Procedure, shortened: as §1

[8] = test system: sicklepod (Cassia obtusifolia, CASOB); assay: as above; details: pre-emerge, phytotoxicity rating 0-100 at 14 days after application
Procedure, shortened: as §1

[9] = test system: velvetleaf (Abutilon theophrasti, ABUTH); assay: as above; details: pre-emerge, phytotoxicity rating 0-100 at 14 days after application
Procedure, shortened: as §1

[10] = test system: field corn (Zea mays L., var. Dekalb 535, CORN); assay: Pre-emerge test, crop safety; details: crop damage, pre-emerge, phytotoxicity rating 0-100 at 14 days after application
Procedure, shortened: (§2)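 Compounds in acetone were track-sprayed at 187 l/ha, 15–1000 g ai/ha, onto sandy loam pots. Pre-emerge seeds were sown one day before spraying, with surface watering afterwards. Post-emerge plants were at the 2–3 leaf stage and sprayed with 0.25% v/v non-ionic surfactant. Injury was rated 0–100 at 14 days.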

[11] = test system: upland rice (Oryza sp., var. Tebonnet, RICE); assay: Pre-emerge test, crop safety; details: crop damage, pre-emerge, phytotoxicity rating 0-100 at 14 days after application
Procedure, shortened: as §2

[12] = test system: barnyardgrass (Echinochloa crus-galli, ECHCG); assay: Post-emerge test, greenhouse herbicide activity screening; details: post-emerge, phytotoxicity rating 0-100 at 14 days after application
Procedure, shortened: (§3)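 Fourteen days after spraying, crop and weed injury was graded visually from 0, no effect, to 100, every plant dead. Test substances were dissolved in acetone and applied at 15–1000 g ai/ha with a flat-fan nozzle. Application was either pre-emergence, one day after sowing, or post-emergence at the 2–3 leaf stage.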

[13] = test system: green foxtail (Setaria viridis, SETVI); assay: as above; details: post-emerge, phytotoxicity rating 0-100 at 14 days after application
Procedure, shortened: as §3

[14] = test system: ivyleaf morningglory (Ipomoea hederacea, IPOHE); assay: as above; details: post-emerge, phytotoxicity rating 0-100 at 14 days after application
Procedure, shortened: as §3

[15] = test system: johnsongrass (Sorghum halepense, SORHA); assay: as above; details: post-emerge, phytotoxicity rating 0-100 at 14 days after application
Procedure, shortened: as §3

[16] = test system: lambsquarters (Chenopodium album, CHEAL); assay: as above; details: post-emerge, phytotoxicity rating 0-100 at 14 days after application
Procedure, shortened: as §3

[17] = test system: large crabgrass (Digitaria sanguinalis, DIGSA); assay: as above; details: post-emerge, phytotoxicity rating 0-100 at 14 days after application
Procedure, shortened: as §3

[18] = test system: redroot pigweed (Amaranthus retroflexus, AMARE); assay: as above; details: post-emerge, phytotoxicity rating 0-100 at 14 days after application
Procedure, shortened: as §3

[19] = test system: sicklepod (Cassia obtusifolia, CASOB); assay: as above; details: post-emerge, phytotoxicity rating 0-100 at 14 days after application
Procedure, shortened: as §3

[20] = test system: velvetleaf (Abutilon theophrasti, ABUTH); assay: as above; details: post-emerge, phytotoxicity rating 0-100 at 14 days after application
Procedure, shortened: as §3

[21] = test system: field corn (Zea mays L., var. Dekalb 535, CORN); assay: Post-emerge test, crop safety; details: post-emerge, crop damage rating 0-100 at 14 days after application
Procedure, shortened: (§4)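 Plants grown in 10 cm pots of sandy loam mix received acetone-dissolved compounds through a moving flat-fan nozzle. Doses ranged from 15 to 1000 g ai/ha. Pre-emerge pots were seeded one day earlier, post-emerge pots 8–21 days earlier. Fourteen days on, each pot was graded 0–100 for damage.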

[22] = test system: upland rice (Oryza sp., var. Tebonnet, RICE); assay: Post-emerge test, crop safety; details: post-emerge, crop damage rating 0-100 at 14 days after application
Procedure, shortened: as §4

C=Cc1ccc(C(=O)Nc2c(OC)c(Cl)cc(F)c2N2C(=O)C3=C(CCCC3)C2=O)cc1 [8-30]
Pre-emerge Herbicidal Activity AMARE ([1]; rate 63 g ai/ha): 100
Pre-emerge Herbicidal Activity AMARE ([1]; rate 250 g ai/ha): 100
Pre-emerge Herbicidal Activity ECHCG ([2]; rate 63 g ai/ha): 0
Pre-emerge Herbicidal Activity ECHCG ([2]; rate 250 g ai/ha): 20
Pre-emerge Herbicidal Activity SETVI ([3]; rate 63 g ai/ha): 20
Pre-emerge Herbicidal Activity SETVI ([3]; rate 250 g ai/ha): 70
Pre-emerge Herbicidal Activity IPOHE ([4]; rate 63 g ai/ha): 20
Pre-emerge Herbicidal Activity IPOHE ([4]; rate 250 g ai/ha): 10
Pre-emerge Herbicidal Activity SORHA ([5]; rate 63 g ai/ha): 0
Pre-emerge Herbicidal Activity SORHA ([5]; rate 250 g ai/ha): 30
Pre-emerge Herbicidal Activity CHEAL ([6]; rate 63 g ai/ha): 100
Pre-emerge Herbicidal Activity CHEAL ([6]; rate 250 g ai/ha): 100
Pre-emerge Herbicidal Activity DIGSA ([7]; rate 63 g ai/ha): 30
Pre-emerge Herbicidal Activity DIGSA ([7]; rate 250 g ai/ha): 50
Pre-emerge Herbicidal Activity CASOB ([8]; rate 63 g ai/ha): 20
Pre-emerge Herbicidal Activity CASOB ([8]; rate 250 g ai/ha): 20
Pre-emerge Herbicidal Activity ABUTH ([9]; rate 63 g ai/ha): 70
Pre-emerge Herbicidal Activity ABUTH ([9]; rate 250 g ai/ha): 90
Pre-emerge Herbicidal Activity CORN ([10]; rate 63 g ai/ha): 0
Pre-emerge Herbicidal Activity CORN ([10]; rate 250 g ai/ha): 5
Pre-emerge Herbicidal Activity RICE ([11]; rate 63 g ai/ha): 5
Pre-emerge Herbicidal Activity RICE ([11]; rate 250 g ai/ha): 10
Post-emerge Herbicidal Activity ECHCG ([12]; 63 g ai/ha): 30
Post-emerge Herbicidal Activity ECHCG ([12]; 250 g ai/ha): 70
Post-emerge Herbicidal Activity SETVI ([13]; 63 g ai/ha): 40
Post-emerge Herbicidal Activity SETVI ([13]; 250 g ai/ha): 70
Post-emerge Herbicidal Activity IPOHE ([14]; 63 g ai/ha): 100
Post-emerge Herbicidal Activity IPOHE ([14]; 250 g ai/ha): 100
Post-emerge Herbicidal Activity SORHA ([15]; 63 g ai/ha): 30
Post-emerge Herbicidal Activity SORHA ([15]; 250 g ai/ha): 50
Post-emerge Herbicidal Activity CHEAL ([16]; 63 g ai/ha): 100
Post-emerge Herbicidal Activity CHEAL ([16]; 250 g ai/ha): 100
Post-emerge Herbicidal Activity DIGSA ([17]; 63 g ai/ha): 20
Post-emerge Herbicidal Activity DIGSA ([17]; 250 g ai/ha): 40
Post-emerge Herbicidal Activity AMARE ([18]; 63 g ai/ha): 100
Post-emerge Herbicidal Activity AMARE ([18]; 250 g ai/ha): 100
Post-emerge Herbicidal Activity CASOB ([19]; 63 g ai/ha): 80
Post-emerge Herbicidal Activity CASOB ([19]; 250 g ai/ha): 100
Post-emerge Herbicidal Activity ABUTH ([20]; 63 g ai/ha): 100
Post-emerge Herbicidal Activity ABUTH ([20]; 250 g ai/ha): 100
Post-emerge Herbicidal Activity CORN ([21]; 63 g ai/ha): 10
Post-emerge Herbicidal Activity CORN ([21]; 250 g ai/ha): 15
Post-emerge Herbicidal Activity RICE ([22]; 63 g ai/ha): 40
Post-emerge Herbicidal Activity RICE ([22]; 250 g ai/ha): 35
